ChEMBL document CHEMBL2074396, “Functional characterization of the rat multispecific organic anion transporter OAT1 mediating basolateral uptake of anionic drugs in the kidney” (FEBS Lett, 1998)

Tests used:
[1] = target: T1, Solute carrier family 22 member 6 (Rattus norvegicus, UniProt O35956); experiment: TP_TRANSPORTER: uptake in Xenopus laevis oocytes; type: functional, cell-based; settings: oocyte
T1 sequence (O35956 whole entry): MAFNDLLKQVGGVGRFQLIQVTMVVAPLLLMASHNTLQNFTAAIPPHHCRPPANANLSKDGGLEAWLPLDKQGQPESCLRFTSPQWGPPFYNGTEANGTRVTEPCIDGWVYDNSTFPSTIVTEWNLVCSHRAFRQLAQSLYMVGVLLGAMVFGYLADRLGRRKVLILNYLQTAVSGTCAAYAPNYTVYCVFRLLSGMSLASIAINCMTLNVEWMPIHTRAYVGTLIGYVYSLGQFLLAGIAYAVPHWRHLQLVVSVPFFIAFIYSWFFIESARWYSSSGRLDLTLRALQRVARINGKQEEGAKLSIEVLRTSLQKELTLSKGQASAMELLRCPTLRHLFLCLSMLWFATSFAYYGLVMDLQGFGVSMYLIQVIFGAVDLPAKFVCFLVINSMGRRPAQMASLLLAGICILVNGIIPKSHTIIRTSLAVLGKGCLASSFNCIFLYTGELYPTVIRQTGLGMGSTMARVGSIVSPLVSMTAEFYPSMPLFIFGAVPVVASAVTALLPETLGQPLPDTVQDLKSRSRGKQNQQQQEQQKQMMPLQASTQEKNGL

[2] = target: T1, Solute carrier family 22 member 6; experiment: TP_TRANSPORTER: inhibition of PAH uptake in Xenopus laevis oocytes; type: functional, cell-based; settings: oocyte

Row | SMILES | Activity [1] | Activity [2]
1 | Nc1nc2ncc(CNc3ccc(C(=O)N[C@@H](CCC(=O)O)C(=O)O)cc3)nc2c(=O)[nH]1 [FOLIC ACID] | substrate [+] | inhibitor [+]
2 | C[C@H]1COc2c(N3CCN(C)CC3)c(F)cc3c(=O)c(C(=O)O)cn1c23.C[C@H]1COc2c(N3CCN(C)CC3)c(F)cc3c(=O)c(C(=O)O)cn1c23.O [LEVOFLOXACIN] | is not a substrate [-] | 
3 | Cc1c(F)c(N2CCNC(C)C2)cc2c1c(=O)c(C(=O)O)cn2C1CC1 (centres undefined) [GREPAFLOXACIN] | is not a substrate [-] | 
